Our source for the IC5, IC50 and inhibition values is ChEMBL document CHEMBL5223090, “Annual review of lysine-specific demethylase 1 (LSD1/KDM1A) inhibitors in 2021” (Eur J Med Chem, 2022).

Data set [1] has as its system A549.
Another data set relates to THP-1. The data set can be described thus: cells. The following applies: Homo sapiens.
Data set [2] has as its system A549. The data set can be described thus: cells. As to conditions: Homo sapiens.
In the next data set the test system is MCF7. The data set can be described thus: cells. As to conditions: Homo sapiens.
Data set [3] has as its target T1, Lysine-specific histone demethylase 1A (Homo sapiens, UniProt O60341).
For a further data set, the target named is Histone deacetylase 2 (Homo sapiens, UniProt Q92769). The data set is described as follows: Inhibition of HDAC2 (unknown origin).
Chain of Histone deacetylase 2 (Q92769 whole entry): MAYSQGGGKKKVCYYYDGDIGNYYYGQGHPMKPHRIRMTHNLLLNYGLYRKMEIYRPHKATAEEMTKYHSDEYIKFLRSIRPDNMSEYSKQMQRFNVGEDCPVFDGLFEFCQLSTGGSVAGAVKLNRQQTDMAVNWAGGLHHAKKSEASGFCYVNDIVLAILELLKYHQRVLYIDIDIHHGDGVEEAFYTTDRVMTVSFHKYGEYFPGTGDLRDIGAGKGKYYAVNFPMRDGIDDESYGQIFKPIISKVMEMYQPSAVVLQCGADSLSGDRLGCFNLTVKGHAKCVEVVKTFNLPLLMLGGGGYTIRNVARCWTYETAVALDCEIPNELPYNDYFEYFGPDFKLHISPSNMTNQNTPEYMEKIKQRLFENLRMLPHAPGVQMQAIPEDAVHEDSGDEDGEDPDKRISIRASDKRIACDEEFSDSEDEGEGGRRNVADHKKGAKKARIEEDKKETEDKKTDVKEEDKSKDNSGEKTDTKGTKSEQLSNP
In the next data set the test system is Bel-7402. The data set can be described thus: cells. The following applies: Homo sapiens.
The subject of a further data set is HCT-116. The data set is described as follows: Antiproliferative activity against human HCT-116 cells assessed as cell growth inhibition. It counts as functional, cell-based.
The next data set concerns PC-3. The data set is described as follows: Antiproliferative activity against human PC-3 cells assessed as cell growth inhibition. The data set is classed as functional, cell-based.
The test system of the next data set is SK-OV-3. The data set is described as follows: Antiproliferative activity against human SK-OV-3 cells assessed as cell growth inhibition. The data set is classed as functional, cell-based.
In the next data set the test system is HepG2. The data set is described as follows: Antiproliferative activity against human HepG2 cells assessed as cell growth inhibition. The data set is classed as functional, cell-based.
A further data set has as its system MDA-MB-231. The data set is described as follows: Antiproliferative activity against human MDA-MB-231 cells assessed as cell growth inhibition. The data set is classed as functional, cell-based.
The next data set in a line: in vitro. The following applies: human, THLE-2 cells.
The test system of another data set is NCI-H460. The data set can be described thus: cells. The following applies: Homo sapiens.
For another data set, the system named is MGC-803. The data set is described as follows: cells. The following applies: Homo sapiens.
Data set [4] addresses T1, Lysine-specific histone demethylase 1A. The data set can be described thus: Inhibition of LSD1 (unknown origin) at 0.4 uM relative to control.
For the next data set, the target named is T2, MAO-A (Homo sapiens, UniProt P21397).
T2 sequence (P21397 whole entry): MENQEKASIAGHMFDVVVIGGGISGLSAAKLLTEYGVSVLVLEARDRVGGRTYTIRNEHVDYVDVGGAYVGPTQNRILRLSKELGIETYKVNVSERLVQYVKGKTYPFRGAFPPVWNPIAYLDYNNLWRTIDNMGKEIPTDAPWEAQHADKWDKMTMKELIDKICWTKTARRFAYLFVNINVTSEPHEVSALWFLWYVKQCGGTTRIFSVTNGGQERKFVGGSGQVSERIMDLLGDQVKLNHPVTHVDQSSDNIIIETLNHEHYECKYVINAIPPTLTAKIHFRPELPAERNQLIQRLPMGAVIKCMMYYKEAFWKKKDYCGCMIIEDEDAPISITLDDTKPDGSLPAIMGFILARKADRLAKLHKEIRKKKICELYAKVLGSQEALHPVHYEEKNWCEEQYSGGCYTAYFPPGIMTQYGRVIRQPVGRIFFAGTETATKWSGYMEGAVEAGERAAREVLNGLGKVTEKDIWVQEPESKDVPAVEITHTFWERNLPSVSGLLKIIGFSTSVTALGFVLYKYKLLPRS
The data set is described as follows: Inhibition of MAO-A (unknown origin) at 0.4 uM relative to control.

Data set [5] is described as follows: Antiproliferative activity against human SGC7901/ADR cells assessed as cell growth inhibition. It counts as functional, cell-based. As to conditions: SGC-7901.
Another data set deals with T3, MAO-B (Homo sapiens, UniProt P27338).
T3 sequence (P27338 whole entry): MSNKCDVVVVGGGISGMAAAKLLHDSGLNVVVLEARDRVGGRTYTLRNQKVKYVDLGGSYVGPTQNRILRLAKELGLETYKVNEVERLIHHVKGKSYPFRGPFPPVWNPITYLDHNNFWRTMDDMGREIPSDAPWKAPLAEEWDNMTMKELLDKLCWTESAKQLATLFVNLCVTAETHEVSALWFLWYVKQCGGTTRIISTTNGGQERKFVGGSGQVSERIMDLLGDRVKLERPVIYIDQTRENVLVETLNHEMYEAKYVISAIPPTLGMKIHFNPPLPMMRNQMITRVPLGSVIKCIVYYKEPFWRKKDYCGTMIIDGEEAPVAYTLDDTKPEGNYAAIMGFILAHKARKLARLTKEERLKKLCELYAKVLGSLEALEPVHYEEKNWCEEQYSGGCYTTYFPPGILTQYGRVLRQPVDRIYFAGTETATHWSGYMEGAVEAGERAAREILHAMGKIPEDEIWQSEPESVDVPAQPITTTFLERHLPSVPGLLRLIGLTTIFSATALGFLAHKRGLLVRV
The data set can be described thus: Inhibition of MAO-B (unknown origin) at 0.4 uM relative to control.

In another data set the test system is SGC-7901. The data set can be described thus: Antiproliferative activity against human SGC-7901 cells assessed as cell growth inhibition. It counts as functional, cell-based.

Structures are written as SMILES.

With `COc1cc(Br)c(/C=C/c2ccc(C(=O)NO)cc2)cc1OC`, the IC5 with A549 [1] worked out at 6.23 µM. In the data set on THP-1, this compound returned an IC50 of 3.39 µM.

As to `Cn1c(C(=O)Nc2cccc3c2CCCN3Cc2ccc(OC3CCNCC3)cc2[N+](=O)[O-])cc2sccc21`, the figures for the 50% inhibitory concentration (IC50) in the data set with A549 [2] and with MCF7 were 2.13 µM and 2.35 µM, respectively.

As to `Cn1c(C(=O)Nc2cccc3c2CCCN3Cc2ccc(OC3CCNCC3)cc2)cc2sccc21`, the IC50 in the data set with A549 [2] stood at 5.3 µM; with MCF7, 6.91 µM.

As to `Oc1ccc(CC2NCCc3cc(O)c(O)cc32)cc1` (configuration not stated) [HIGENAMINE], in [3], it took 1.47 µM to reach half-maximal inhibition (IC50).

In the case of `Cc1ccc(-c2cc(/C=C/c3ccc(C(=O)NO)cc3)ccn2)c(F)c1`, the half-inhibitory concentration (IC50) against Histone deacetylase 2 is greater than 10 µM.

With `COc1ccc(S(=O)(=O)N(CCSC(=S)N2CCN(C)CC2)c2cc(OC)c(OC)c(OC)c2)cc1`, in the data set with Bel-7402, the IC50 is 0.32 µM.

With `O=S1(=O)CCCCN(S(=O)(=O)c2ccc(-c3cnc(C4CC4)o3)cc2)c2ccccc21`, the concentration for half-maximal inhibition (IC50) with HCT-116 came out at 0.263 µM; with PC-3 it was 5.88 µM; in the data set with SK-OV-3, 1.62 µM; in the data set with HepG2, 2.17 µM.

On to `Cn1c(C(=O)CC(=O)Nc2cccc3c2CCCN3Cc2ccc(OC3CCNCC3)cc2)cc2ccccc21`, for which the half-maximal inhibitory concentration (IC50) worked out at 7.61 µM with A549 [2] and 7.02 µM with MCF7.

Take `Cn1c(C(=O)Nc2cccc3c2N(Cc2ccc(OC4CCNCC4)cc2)CCC3)cc2cc(F)ccc21`: it took 0.54 µM to reach half-maximal inhibition in data set [3] (IC50).

Turning to `O=C(CC(=O)c1ccc(C(F)(F)F)cc1)Nc1cccc2c1CCCN2Cc1ccc(OC2CCNCC2)cc1`, the IC50 in the data set with A549 [2] worked out at 8.49 µM; in the data set with MCF7, 0.35 µM.

As to `COc1cc(F)c(/C=C/c2ccc(C(=O)NO)cc2)cc1OC`, the IC50 with A549 [2] is 1.58 µM; with THP-1, 2.15 µM; in the data set on MCF7, 4960 µM.

Consider `Nc1ccc(C(=O)/C=C/c2ccccc2F)cc1`, for which the IC50 with MDA-MB-231 is 34.7 µM; in the data set with MCF7 it was 13.2 µM.

As for `N/C(=N\O)c1cccc(/C=C/c2ccnc(-c3cc(F)ccc3O)c2)c1`, the IC50 against Histone deacetylase 2 is greater than 100 µM.

The compound `Oc1ccc(C2CNCCc3c2cc(O)c(O)c3Cl)cc1` (configuration not stated) [FENOLDOPAM] gave an IC50 in data set [3] of 0.89 µM.

For the compound `CNCCCNCc1coc2cc(-c3ccc(C)cc3)c(-c3ccc(C#N)cc3)cc12`, the concentration for half-maximal inhibition (IC50) in the data set “in vitro” was 4.2 µM; in the data set on NCI-H460 it was 1.87 µM; with A549 [2], 4.08 µM; in the data set with THP-1, 4.87 µM; with MGC-803, 6.47 µM; in the data set with MCF7, 3.36 µM.

In data set [3], `O=C(c1ccc(OCCN2CCCCC2)cc1)c1c(-c2ccc(O)cc2)sc2cc(O)ccc12` [RALOXIFENE] displayed an IC50 of 2.08 µM.

In turn, `COc1cc2c(c(O)c1OC)c(=O)c1ccccc1n2C` [ARBORININE] registered an inhibition in [4] of 99.3%. In addition, the inhibition at 0.4 µM on MAO-A was 23.7%; against MAO-B, 31%. Moreover, the half-inhibitory concentration (IC50) in data set [5] came out at 0.24 µM; in the data set with SGC-7901, 1.96 µM.

Broadly, the IC50 is the concentration that gives 50% inhibition. Broadly, the inhibition is the drop in the measured response relative to a control, in per cent. Read a low inhibition as a response near the control.
